In patent US11634425B2, “Pharmaceutical compounds” (priority 2019, dated 2023) one finds EC50 and CC50 data, which are given here for 22 molecules.

Data set [1] concerns RSV A2. Put plainly: RSV plaque reduction assay. Format: cell-based, respiratory syncytial virus (RSV). The conditions noted are these: human respiratory syncytial virus, HepG2, Hep-G2 cells, mean of at least two experiments. As for the experimental part: (§1) Compounds were subjected to RSV plaque reduction assays according to the following protocol. Plaque EC50 and cell toxicity CC50 values are a mean of at least two experiments and figures are rounded to whole units.
Hep-G2 cells (ECACC, 85011430) were passaged in flasks and seeded in 24-well plates in DMEM containing antibiotics and supplemented with 10% FBS. During inoculation and subsequent incubation, cells were cultured in DMEM containing 2% FBS. 100 plaque forming unit/well of RSV (RSV A2 ECACC, 0709161v) was mixed with eight serial dilutions of compound. Subsequently, 100 μL of the virus/compound mixtures was added to confluent Hep-G2 cell monolayers. The cells and virus/compound mixtures were incubated at 37° C. in a humidified 5% CO2 incubator for 2 h prior to removal of the inoculum and addition of 1 mL of overlay (DMEM containing 2% FBS and 0.8% CMC) containing compound dilutions. The cells and were incubated at 37° C. in a humidified 5% CO2 incubator for 2 days.
Cells were washed with PBS before adding 75/25% […] EtOH/MeOH, for 3 min. Fixative was removed and plates were washed with PBS. A pre-titrated amount of the primary antibody was added in 200 μL PBS/2% milk powder, and plates incubated for 90 min at 37° C. The plates were washed 3 times with PBS/0.05% Tween20 before addition of rabbit anti-goat horse radish peroxidase in 200 μL PBS/2% milk powder, and incubated for 1 h at 37° C. Following three wash steps with PBS/0.05% Tween20, 200 μL ready-to-use TrueBlue was added and plates were incubated at rt for 10-15 min before washing with water. After removal of water, plates were air-dried in the dark.
(§2) Plates were scanned and analysed using the Immunospot S6 Macro analyser, which is equipped with BioSpot analysis software for counting immunostained plaques (virospots). Plaque counts were used to calculate % c infection relative to the mean of the plaque count in the virus control wells for RSV. The EC50 value was calculated as 50% reduction in signal, respectively, by interpolation of inhibition curves fitted with a 4-parameter nonlinear regression with a variable slope in Dotmatics. Plaque EC50 and cell toxicity CC50 values are a mean of at least two experiments and figures are rounded to whole units.

A short description of data set [2]: Cell cytotoxicity (CC50). Format: cell-based. The conditions noted are these: human; mean of at least two experiments.
Text: as §1, §2

In data set [1], `Cc1ccn2nc(-c3ccccc3F)c(C(=O)N[C@H]3N=C(c4ccccc4)c4ccccc4NC3=O)c2n1` [Example 22, 2-(2-Fluorophenyl)-5-methyl-N-[(3S)-2-oxo-5-phenyl-1,3-dihydro-1,4-benzodiazepin-3-yl]pyrazolo[1,5-a]pyrimidine-3-carboxamide] returned an EC50 of 33 nM. In data set [2], this molecule registered a CC50 of more than 25000 nM.

With `CCNc1ccc(-c2nn3cccnc3c2C(=O)N[C@H]2N=C(c3ccccc3)c3ccccc3NC2=O)c(F)n1` [Example 65, 2-[6-(Ethylamino)-2-fluoropyridin-3-yl]-N-[(3S)-2-oxo-5-phenyl-1,3-dihydro-1,4-benzodiazepin-3-yl]pyrazolo[1,5-a]pyrimidine-3-carboxamide], the EC50 in data set [1] turned out to be 18 nM. The molecule also displayed a CC50 in data set [2] of more than 25000 nM.

In data set [1], `O=C(N[C@H]1N=C(c2ccccc2)c2cccc(F)c2NC1=O)c1c(-c2ccccc2F)nc2ccc(N3CCC3)nn12` [Example 94, 6-(Azetidin-1-yl)-N-[(3S)-9-fluoro-2-oxo-5-phenyl-1,3-dihydro-1,4-benzodiazepin-3-yl]-2-(2-fluorophenyl)imidazo[1,2-b]pyridazine-3-carboxamide] had an EC50 of 50 nM. Also, the CC50 in data set [2] was more than 25000 nM.

In data set [1], `CC(C)c1ccc(-c2nn3cccnc3c2C(=O)N[C@H]2N=C(c3ccccc3)c3ccccc3NC2=O)cn1` [Example 58, 2-(6-Propan-2-ylpyridin-3-yl)-N-[(3S)-2-oxo-5-phenyl-1,3-dihydro-1,4-benzodiazepin-3-yl]pyrazolo[1,5-a]pyrimidine-3-carboxamide] came in with an EC50 of 69 nM. Further, the CC50 in data set [2] is more than 25000 nM.

In data set [1], `O=C(N[C@H]1N=C(c2ccccc2)c2ccccc2NC1=O)c1c(-c2cncc(C3CC3)c2)nn2cccnc12` [Example 31, 2-(5-Cyclopropylpyridin-3-yl)-N-[(3S)-2-oxo-5-phenyl-1,3-dihydro-1,4-benzodiazepin-3-yl]pyrazolo[1,5-a]pyrimidine-3-carboxamide] yielded an EC50 of 96 nM. For the same molecule, in data set [2], the CC50 was more than 25000 nM.

Take `O=C(N[C@H]1N=C(c2ccccc2)c2ccccc2NC1=O)c1c(-c2cc(F)ccc2F)nn2cccnc12` [Example 6, 2-(2,5-Difluorophenyl)-N-[(3S)-2-oxo-5-phenyl-1,3-dihydro-1,4-benzodiazepin-3-yl]pyrazolo[1,5-a]pyrimidine-3-carboxamide]: the EC50 in data set [1] worked out at 94 nM. Also, the CC50 in data set [2] was more than 25000 nM.

On to `O=C(N[C@H]1N=C(c2ccccc2)c2cccc(F)c2NC1=O)c1c(-c2ccccc2)nc2ccc(N3CCOCC3)nn12` [Example 83, N-[(3S)-9-fluoro-2-oxo-5-phenyl-1,3-dihydro-1,4-benzodiazepin-3-yl]-6-morpholin-4-yl-2-phenylimidazo[1,2-b]pyridazine-3-carboxamide], for which the response in data set [1] was half-maximal at 118 nM (EC50). Also, the CC50 in data set [2] was more than 25000 nM.

In data set [1], `Cc1cnc2c(C(=O)N[C@H]3N=C(c4ccccc4)c4ccccc4NC3=O)c(-c3ccccc3F)nn2c1` [Example 33, 2-(2-Fluorophenyl)-6-methyl-N-[(3S)-2-oxo-5-phenyl-1,3-dihydro-1,4-benzodiazepin-3-yl]pyrazolo[1,5-a]pyrimidine-3-carboxamide] displayed an EC50 of 29 nM. This molecule had a CC50 in data set [2] of more than 25000 nM.

The molecule `COc1cccc(-c2nn3cccnc3c2C(=O)N[C@H]2N=C(c3ccccc3)c3cccc(F)c3NC2=O)c1F` [Example 9, 2-(2-Fluoro-3-methoxyphenyl)-N-[(3S)-9-fluoro-2-oxo-5-phenyl-1,3-dihydro-1,4-benzodiazepin-3-yl]pyrazolo[1,5-a]pyrimidine-3-carboxamide] yielded an EC50 in data set [1] of 73 nM. This molecule also gave a CC50 in data set [2] of more than 25000 nM.

For `COc1ccc2nc(-c3ccccc3)c(C(=O)N[C@H]3N=C(c4ccccc4)c4ccccc4NC3=O)n2n1` [Example 111, 6-Methoxy-N-[(3S)-2-oxo-5-phenyl-1,3-dihydro-1,4-benzodiazepin-3-yl]-2-phenylimidazo[1,2-b]pyridazine-3-carboxamide], the EC50 in data set [1] came out at 48 nM. In data set [2], the CC50 is more than 25000 nM.

Molecule `CCNc1ccc(-c2nn3cccnc3c2C(=O)N[C@H]2N=C(c3ccccc3)c3cccc(F)c3NC2=O)c(F)n1` [Example 66, 2-[6-(Ethylamino)-2-fluoropyridin-3-yl]-N-[(3S)-9-fluoro-2-oxo-5-phenyl-1,3-dihydro-1,4-benzodiazepin-3-yl]pyrazolo[1,5-a]pyrimidine-3-carboxamide] showed an EC50 in data set [1] of 13 nM. In data set [2], this molecule yielded a CC50 of more than 25000 nM.

For the molecule `Cc1cc(-c2nc3ccc(C)nn3c2C(=O)N[C@H]2N=C(c3ccccc3)c3ccccc3NC2=O)ccn1` [Example 97, 6-Methyl-2-(2-methylpyridin-4-yl)-N-[(3S)-2-oxo-5-phenyl-1,3-dihydro-1,4-benzodiazepin-3-yl]imidazo[1,2-b]pyridazine-3-carboxamide], it took 49 nM to reach a half-maximal effect in data set [1] (EC50). This molecule also gave a CC50 in data set [2] of more than 25000 nM.

In data set [1], `COCCOc1ccc2nc(-c3ccccc3F)c(C(=O)N[C@H]3N=C(c4ccccc4)c4cccc(F)c4NC3=O)n2n1` [Example 110, N-[(3S)-9-Fluoro-2-oxo-5-phenyl-1,3-dihydro-1,4-benzodiazepin-3-yl]-2-(2-fluorophenyl)-6-(2-methoxyethoxy)imidazo[1,2-b]pyridazine-3-carboxamide] displayed an EC50 of 73 nM. The same molecule showed a CC50 in data set [2] of more than 25000 nM.

With `Cc1ccc2nc(-c3ccccc3)c(C(=O)N[C@H]3N=C(c4ccccc4)c4ccccc4NC3=O)n2n1` [Example 92, 6-Methyl-N-[(3S)-2-oxo-5-phenyl-1,3-dihydro-1,4-benzodiazepin-3-yl]-2-phenylimidazo[1,2-b]pyridazine-3-carboxamide], it took 48 nM to reach a half-maximal effect in data set [1] (EC50). Moreover, the CC50 in data set [2] is more than 25000 nM.

As for `CC(C)Nc1ccc(-c2nn3cccnc3c2C(=O)N[C@H]2N=C(c3ccccc3)c3ccccc3NC2=O)cc1` [Example 13, N-[(3S)-2-Oxo-5-phenyl-1,3-dihydro-1,4-benzodiazepin-3-yl]-2-[4-(propan-2-ylamino)phenyl]pyrazolo[1,5-a]pyrimidine-3-carboxamide], the EC50 in data set [1] was 94 nM. Further, the CC50 in data set [2] was more than 25000 nM.

In data set [1], `CCOc1ccc2nc(-c3ccc(CC)nc3)c(C(=O)N[C@H]3N=C(c4ccccc4)c4cccc(F)c4NC3=O)n2n1` [Example 122, 6-Ethoxy-2-(6-ethylpyridin-3-yl)-N-[(3S)-9-fluoro-2-oxo-5-phenyl-1,3-dihydro-1,4-benzodiazepin-3-yl]imidazo[1,2-b]pyridazine-3-carboxamide] had an EC50 of 100 nM. Moreover, the CC50 in data set [2] is more than 25000 nM.

In data set [1], `CC1COCCN1c1ccc(-c2nn3cccnc3c2C(=O)N[C@H]2N=C(c3ccccc3)c3ccccc3NC2=O)cn1` (stereo partly drawn) [Example 67, 2-[6-(3-Methylmorpholin-4-yl)pyridin-3-yl]-N-[(3S)-2-oxo-5-phenyl-1,3-dihydro-1,4-benzodiazepin-3-yl]pyrazolo[1,5-a]pyrimidine-3-carboxamide] gave an EC50 of 141 nM. The same molecule gave a CC50 in data set [2] of more than 25000 nM.

In turn, `COc1ccc2nc(-c3ccc(C)cn3)c(C(=O)N[C@H]3N=C(c4ccccc4)c4cccc(F)c4NC3=O)n2n1` [Example 120, N-[(3S)-9-fluoro-2-oxo-5-phenyl-1,3-dihydro-1,4-benzodiazepin-3-yl]-6-methoxy-2-(6-methyipyridin-3-yl)imidazo[1,2-b]pyridazine-3-carboxamide] displayed an EC50 in data set [1] of 101 nM. For the same molecule, in data set [2], the CC50 is more than 25000 nM.

In data set [1], `CCc1ccc(-c2nc3ccc(Cl)nn3c2C(=O)N[C@H]2N=C(c3ccccc3)c3cccc(F)c3NC2=O)cn1` [Example 117, 6-Chloro-2-(6-ethylpyridin-3-yl)-N-[(3S)-9-fluoro-2-oxo-5-phenyl-1,3-dihydro-1,4-benzodiazepin-3-yl]imidazo[1,2-b]pyridazine-3-carboxamide] showed a concentration for a half-maximal effect (EC50) of 27 nM. The molecule also had a CC50 in data set [2] of more than 25000 nM.

Turning to `CCc1ccc(-c2nn3cccnc3c2C(=O)N[C@H]2N=C(c3ccccc3)c3ccccc3NC2=O)c(C)n1` [Example 56], in data set [1], the EC50 is 63 nM. In data set [2], this molecule returned a CC50 of more than 25000 nM.

With `Cc1ccc2nc(-c3ccc(N4CCOCC4)nc3)c(C(=O)N[C@H]3N=C(c4ccccc4)c4ccccc4NC3=O)n2n1` [Example 104, 6-Methyl-2-(6-morpholin-4-ylpyridin-3-yl)-N-[(3S)-2-oxo-5-phenyl-1,3-dihydro-1,4-benzodiazepin-3-yl]imidazo[1,2-b]pyridazine-3-carboxamide], the EC50 in data set [1] turned out to be 29 nM. This molecule also displayed a CC50 in data set [2] of more than 25000 nM.

In data set [1], `O=C(N[C@H]1N=C(c2ccccc2)c2cccc(F)c2NC1=O)c1c(-c2ccccc2)nc2ccc(N3C[C@H]4C[C@@H]3CO4)nn12` [Example 82, N-[(3S)-9-fluoro-2-oxo-5-phenyl-1,3-dihydro-1,4-benzodiazepin-3-yl]-6-[(1R,4R)-2-oxa-5-azabicyclo[2.2.1]heptan-5-yl]-2-phenylimidazo[1,2-b]pyridazine-3-carboxamide] had an EC50 of 81 nM. The CC50 in data set [2] is more than 25000 nM.
